System: CD1 female mouse brain lipidome
Assay: Brain-region lipid levels (HPLC/MS/MS lipidomics) 2 h after single i.p. 3 mg/kg CP 55,940 vs vehicle
Format: in vivo
Experimental: The Bloomington Institutional Animal Care and Use Committee of Indiana University reviewed and approved the animal procedures. Female mice from the CD1 strain were utilized to match our study examining THC’s effects on the brain lipidome ([Leishman et al., 2018]). Mice were given a single i.p. injection of either 3 mg/kg CP or 1:1:18 cremophor:ethanol:saline vehicle (please refer to the section “3 mg/kg CP Is Relevant for Synthetic Cannabinoid Abuse and Has Stronger Effects on the Female Mouse Brain Lipidome During Adolescence” for a justification of dose and use of female mice). Three different age groups were given injections: PND 35 and PND 50 adolescents, and adult mice (PND 113). At least eight mice in each age group received CP and at least eight received vehicle. Matching the THC study time course ([Leishman et al., 2018]), mice were sacrificed via rapid decapitation 2 h after injection. Brains were immediately removed and flash-frozen in liquid nitrogen, and then stored at -80°C until dissections were performed. Brains were dissected on an ice-cold dissection plate into the following regions: STR, HIPP, CER, THAL, CTX, HYP, MID, and STEM. These abbreviations for these brain areas will be used exclusively when discussing the results generated by these specific dissections. Each dissected area was immediately placed in liquid nitrogen and then stored at -80°C until used for lipid extraction.
Tissue extracts were performed as previously described ([Bradshaw et al., 2006]; [Stuart et al., 2013]; [Raboune et al., 2014]; [Leishman et al., 2016a],[b], [2017], [2018]). First, samples were shock frozen in liquid nitrogen, weighed, and transferred to a centrifuge tube. The mass of the largest sample was multiplied by 50 to determine how many milliliters of HPLC-grade methanol (Fisher, Fair Lawn, NJ, United States) to add. Then, samples were spiked with 500 pmol deuterium-labeled NAGly (d8NAGly; Cayman Chemical, Ann Arbor, MI, United States). Samples were placed on ice in darkness for 2 h then individually homogenized and centrifuged at 19,000 × g for 20 min at 20°C. Supernatants were diluted with HPLC water (purified in house) to make a solution of 75% water, 25% supernatant. Lipids were partially purified on C18 solid phase extraction columns (Agilent, Palo Alto, CA, United States). A series of four elutions with 1.5 mL of 60%, 75%, 85%, and 100% methanol were collected ([Stuart et al., 2013]; [Leishman et al., 2016a],[b], [2018]).
As previously described ([Bradshaw et al., 2006]; [Tan et al., 2006]; [Smoum et al., 2010]; [Stuart et al., 2013]; [Tortoriello et al., 2013]; [Raboune et al., 2014]; [Leishman et al., 2016a],[b], [2017], [2018]), samples were analyzed using an Applied Biosystems API 3000 triple quadrupole mass spectrometer with electrospray ionization (Foster City, CA, United States). Using an Agilent XDB-C18 reversed phase analytical column and optimized mobile phase gradients, 20 μL from each elution were chromatographed. Two Shimadzu 10ADvp pumps (Columbia, MD, United States) provided the pressure for gradient elution. Mobile phase A: 20% methanol, 80% water (v/v) and 1 mM ammonium acetate (Sigma, St. Louis, MO, United States). Mobile phase B: 100% methanol, 1 mM ammonium acetate. Every method run began with 0% mobile phase B, reached 100% mobile phase B flowing at 0.2 mL/min, and gradually returned to 0% mobile phase B.
This screening library will be referred to as the lipidome when discussing data from this study. HPLC/MS/MS data were analyzed using Analyst software (Applied Biosystems) ([Bradshaw et al., 2006]; [Tan et al., 2006]; [Stuart et al., 2013]; [Tortoriello et al., 2013]; [Raboune et al., 2014]; [Leishman et al., 2016a],[b], [2017], [2018]). Chromatograms (Supplementary Figure 3) were generated by determining the retention time of analytes from the analytical column with a [M-1] or [M+1] parent peak and a fragmentation peak corresponding to the programmed values. […]

CCCCCCC(C)(C)c1ccc([C@@H]2C[C@H](O)CC[C@H]2CCCO)c(O)c1 [CP 55,940]
N-stearoyl leucine mean level (PND 35 striatum): 9.98E-13 moles per gram
N-stearoyl methionine mean level (PND 35 striatum): 1.31E-12 moles per gram
N-stearoyl phenylalanine mean level (PND 35 striatum): 1.28E-12 moles per gram
N-stearoyl serine mean level (PND 35 striatum): 1.89E-11 moles per gram
N-stearoyl tryptophan mean level (PND 35 striatum): 5.77E-13 moles per gram
Oleic acid mean level (PND 35 striatum): 1.18E-09 moles per gram
PGE2 mean level (PND 35 striatum): 3.74E-10 moles per gram
PGF2α mean level (PND 35 striatum): 2.8E-10 moles per gram
PhosphoLEA mean level (PND 35 striatum): 1.91E-11 moles per gram
total changes in lipid levels across the eight regions (PND 50): 141
changes in lipid levels that were decreases (PND 50, eight regions): 110
2-linoleoyl glycerol level vs vehicle (PND 50 CER): ↓↓ (1.50-1.99 times lower than vehicle)
2-oleoyl glycerol level vs vehicle (PND 50 CER): ↓ (1-1.49 times lower than vehicle)
2-palmitoyl glycerol level vs vehicle (PND 50 CER): ↓ (1-1.49 times lower than vehicle)
6-ketoPGF1α level vs vehicle (PND 50 CER): ↑ (1-1.49 times higher than vehicle)
Arachidonic acid level vs vehicle (PND 50 CER): ↓ (1-1.49 times lower than vehicle)
Linoleic acid level vs vehicle (PND 50 CER): ↓ (1-1.49 times lower than vehicle)
N-arachidonoyl GABA level vs vehicle (PND 50 CER): ↓ (1-1.49 times lower than vehicle)
N-arachidonoyl ethanolamine level vs vehicle (PND 50 CER): ↓ (1-1.49 times lower than vehicle)
N-arachidonoyl glycine level vs vehicle (PND 50 CER): ↓ (1-1.49 times lower than vehicle)
N-arachidonoyl phenylalanine level vs vehicle (PND 50 CER): ↓↓ (1.50-1.99 times lower than vehicle)
N-arachidonoyl serine level vs vehicle (PND 50 CER): ↓ (1-1.49 times lower than vehicle)
N-arachidonoyl taurine level vs vehicle (PND 50 CER): ↓ (1-1.49 times lower than vehicle)
N-arachidonoyl tyrosine level vs vehicle (PND 50 CER): ↓ (1-1.49 times lower than vehicle)
N-docosahexaenoyl phenylalanine level vs vehicle (PND 50 CER): ↓ (1-1.49 times lower than vehicle)
N-linoleoyl ethanolamine level vs vehicle (PND 50 CER): ↓ (1-1.49 times lower than vehicle)
N-oleoyl GABA level vs vehicle (PND 50 CER): ↓ (1-1.49 times lower than vehicle)
N-oleoyl ethanolamine level vs vehicle (PND 50 CER): ↓ (1-1.49 times lower than vehicle)
N-oleoyl phenylalanine level vs vehicle (PND 50 CER): ↑ (1-1.49 times higher than vehicle)
N-palmitoyl leucine level vs vehicle (PND 50 CER): ↑↑ (1.50-1.99 times higher than vehicle)
N-palmitoyl valine level vs vehicle (PND 50 CER): ↑ (1-1.49 times higher than vehicle)
Oleic Acid level vs vehicle (PND 50 CER): ↓ (1-1.49 times lower than vehicle)
PGE2 level vs vehicle (PND 50 CER): ↓ (1-1.49 times lower than vehicle)
PGF2α level vs vehicle (PND 50 CER): ↓ (1-1.49 times lower than vehicle)
2-linoleoyl glycerol level vs vehicle (PND 50 CTX): ↓ (1-1.49 times lower than vehicle)
2-oleoyl glycerol level vs vehicle (PND 50 CTX): ↓ (1-1.49 times lower than vehicle)
Arachidonic acid level vs vehicle (PND 50 CTX): ↓ (1-1.49 times lower than vehicle)
Linoleic acid level vs vehicle (PND 50 CTX): ↓↓ (1.50-1.99 times lower than vehicle)
N- stearoyl valine level vs vehicle (PND 50 CTX): ↑ (1-1.49 times higher than vehicle)
N-arachidonoyl GABA level vs vehicle (PND 50 CTX): ↓ (1-1.49 times lower than vehicle)
N-arachidonoyl alanine level vs vehicle (PND 50 CTX): ↓ (1-1.49 times lower than vehicle)
N-arachidonoyl ethanolamine level vs vehicle (PND 50 CTX): ↓ (1-1.49 times lower than vehicle)
N-arachidonoyl phenylalanine level vs vehicle (PND 50 CTX): ↓ (1-1.49 times lower than vehicle)
N-arachidonoyl taurine level vs vehicle (PND 50 CTX): ↓ (1-1.49 times lower than vehicle)
N-docosahexaenoyl ethanolamine level vs vehicle (PND 50 CTX): ↓ (1-1.49 times lower than vehicle)
N-linoleoyl ethanolamine level vs vehicle (PND 50 CTX): ↓ (1-1.49 times lower than vehicle)
N-oleoyl ethanolamine level vs vehicle (PND 50 CTX): ↓↓ (1.50-1.99 times lower than vehicle)
N-oleoyl serine level vs vehicle (PND 50 CTX): ↑ (1-1.49 times higher than vehicle)
N-palmitoyl leucine level vs vehicle (PND 50 CTX): ↑ (1-1.49 times higher than vehicle)
N-palmitoyl methionine level vs vehicle (PND 50 CTX): ↑ (1-1.49 times higher than vehicle)
N-palmitoyl phenylalanine level vs vehicle (PND 50 CTX): ↑ (1-1.49 times higher than vehicle)
N-palmitoyl tyrosine level vs vehicle (PND 50 CTX): ↑ (1-1.49 times higher than vehicle)
N-palmitoyl valine level vs vehicle (PND 50 CTX): ↑ (1-1.49 times higher than vehicle)
N-stearoyl phenylalanine level vs vehicle (PND 50 CTX): ↑ (1-1.49 times higher than vehicle)
PGE2 level vs vehicle (PND 50 CTX): ↓ (1-1.49 times lower than vehicle)
2-linoleoyl glycerol level vs vehicle (PND 50 HIPP): ↓ (1-1.49 times lower than vehicle)
6-ketoPGF1α level vs vehicle (PND 50 HIPP): ↑ (1-1.49 times higher than vehicle)
Linoleic acid level vs vehicle (PND 50 HIPP): ↓ (1-1.49 times lower than vehicle)
N-arachidonoyl alanine level vs vehicle (PND 50 HIPP): ↓ (1-1.49 times lower than vehicle)
N-arachidonoyl ethanolamine level vs vehicle (PND 50 HIPP): ↓↓ (1.50-1.99 times lower than vehicle)
N-arachidonoyl glycine level vs vehicle (PND 50 HIPP): ↓↓ (1.50-1.99 times lower than vehicle)
N-arachidonoyl serine level vs vehicle (PND 50 HIPP): ↓↓ (1.50-1.99 times lower than vehicle)
N-arachidonoyl taurine level vs vehicle (PND 50 HIPP): ↓ (1-1.49 times lower than vehicle)
N-arachidonoyl tyrosine level vs vehicle (PND 50 HIPP): ↑ (1-1.49 times higher than vehicle)
N-docosahexaenoyl ethanolamine level vs vehicle (PND 50 HIPP): ↓ (1-1.49 times lower than vehicle)
N-linoleoyl ethanolamine level vs vehicle (PND 50 HIPP): ↓↓ (1.50-1.99 times lower than vehicle)
N-linoleoyl serine level vs vehicle (PND 50 HIPP): ↑ (1-1.49 times higher than vehicle)
N-oleoyl leucine level vs vehicle (PND 50 HIPP): ↓ (1-1.49 times lower than vehicle)
N-oleoyl serine level vs vehicle (PND 50 HIPP): ↑ (1-1.49 times higher than vehicle)
PGE2 level vs vehicle (PND 50 HIPP): ↑ (1-1.49 times higher than vehicle)
PGF2α level vs vehicle (PND 50 HIPP): ↑ (1-1.49 times higher than vehicle)
2-arachidonoyl glycerol level vs vehicle (PND 50 HYP): ↓ (1-1.49 times lower than vehicle)
N-arachidonoyl phenylalanine level vs vehicle (PND 50 HYP): ↓ (1-1.49 times lower than vehicle)
N-palmitoyl leucine level vs vehicle (PND 50 HYP): ↑ (1-1.49 times higher than vehicle)
PGF2α level vs vehicle (PND 50 HYP): ↑ (1-1.49 times higher than vehicle)
number of lipids changed (PND 50 HYP, 49 detected): four
2-linoleoyl glycerol level vs vehicle (PND 50 MID): ↓ (1-1.49 times lower than vehicle)
2-oleoyl glycerol level vs vehicle (PND 50 MID): ↓ (1-1.49 times lower than vehicle)
6-ketoPGF1α level vs vehicle (PND 50 MID): ↓ (1-1.49 times lower than vehicle)
Linoleic acid level vs vehicle (PND 50 MID): ↓ (1-1.49 times lower than vehicle)
N-arachidonoyl GABA level vs vehicle (PND 50 MID): ↓ (1-1.49 times lower than vehicle)
N-arachidonoyl alanine level vs vehicle (PND 50 MID): ↓↓ (1.50-1.99 times lower than vehicle)
N-arachidonoyl ethanolamine level vs vehicle (PND 50 MID): ↓ (1-1.49 times lower than vehicle)
N-arachidonoyl glycine level vs vehicle (PND 50 MID): ↓↓ (1.50-1.99 times lower than vehicle)
N-arachidonoyl methionine level vs vehicle (PND 50 MID): ↓↓ (1.50-1.99 times lower than vehicle)
N-arachidonoyl phenylalanine level vs vehicle (PND 50 MID): ↓ (1-1.49 times lower than vehicle)
N-arachidonoyl tyrosine level vs vehicle (PND 50 MID): ↓ (1-1.49 times lower than vehicle)
N-docosahexaenoyl GABA level vs vehicle (PND 50 MID): ↓ (1-1.49 times lower than vehicle)
N-docosahexaenoyl ethanolamine level vs vehicle (PND 50 MID): ↓ (1-1.49 times lower than vehicle)
N-docosahexaenoyl leucine level vs vehicle (PND 50 MID): ↑ (1-1.49 times higher than vehicle)
N-linoleoyl ethanolamine level vs vehicle (PND 50 MID): ↓ (1-1.49 times lower than vehicle)
N-oleoyl ethanolamine level vs vehicle (PND 50 MID): ↓ (1-1.49 times lower than vehicle)
N-oleoyl methionine level vs vehicle (PND 50 MID): ↓↓ (1.50-1.99 times lower than vehicle)
N-palmitoyl alanine level vs vehicle (PND 50 MID): ↓ (1-1.49 times lower than vehicle)
N-palmitoyl ethanolamine level vs vehicle (PND 50 MID): ↓ (1-1.49 times lower than vehicle)
N-palmitoyl leucine level vs vehicle (PND 50 MID): ↑ (1-1.49 times higher than vehicle)
N-palmitoyl serine level vs vehicle (PND 50 MID): ↓ (1-1.49 times lower than vehicle)
N-stearoyl methionine level vs vehicle (PND 50 MID): ↓ (1-1.49 times lower than vehicle)
N-stearoyl phenylalanine level vs vehicle (PND 50 MID): ↓ (1-1.49 times lower than vehicle)
Oleic Acid level vs vehicle (PND 50 MID): ↓ (1-1.49 times lower than vehicle)
PGE2 level vs vehicle (PND 50 MID): ↓ (1-1.49 times lower than vehicle)
PGF2α level vs vehicle (PND 50 MID): ↓ (1-1.49 times lower than vehicle)

From PMC6277767, “Broad and Region-Specific Impacts of the Synthetic Cannabinoid CP 55,940 in Adolescent and Adult Female Mouse Brains” (Frontiers in Molecular Neuroscience, 2018)
